Tests used:
[1] = Cardiac PET imaging in rabbit models of regional and systemic cardiac sympathetic denervation (CSD); assay type: in vivo, rabbits
Method: Rabbit models of regional and systemic CSD were used. To develop regional CSD, a median sternotomy was performed and phenol (89% in liquid) was pained on the anterior and posterior walls of the left ventricle. To develop systemic denervation the neurotoxin, 6-hydroxydopamine (25 mg/kg on day 1, 2, 7 and 8), was administered intravenously. Two weeks following these procedures, rabbits were imaged with imaging agent-1 (˜1.5 mCi, i.v.) using a microPET camera for 30 minutes.

[2] = biological target: T1, NET (Homo sapiens, UniProt P23975); assay: NET mediated uptake kinetics in SK-N-SH cells; assay type: cell-based; parameters: endogenous in cells; host or cells: SK-N-SH
T1 sequence (P23975 whole entry): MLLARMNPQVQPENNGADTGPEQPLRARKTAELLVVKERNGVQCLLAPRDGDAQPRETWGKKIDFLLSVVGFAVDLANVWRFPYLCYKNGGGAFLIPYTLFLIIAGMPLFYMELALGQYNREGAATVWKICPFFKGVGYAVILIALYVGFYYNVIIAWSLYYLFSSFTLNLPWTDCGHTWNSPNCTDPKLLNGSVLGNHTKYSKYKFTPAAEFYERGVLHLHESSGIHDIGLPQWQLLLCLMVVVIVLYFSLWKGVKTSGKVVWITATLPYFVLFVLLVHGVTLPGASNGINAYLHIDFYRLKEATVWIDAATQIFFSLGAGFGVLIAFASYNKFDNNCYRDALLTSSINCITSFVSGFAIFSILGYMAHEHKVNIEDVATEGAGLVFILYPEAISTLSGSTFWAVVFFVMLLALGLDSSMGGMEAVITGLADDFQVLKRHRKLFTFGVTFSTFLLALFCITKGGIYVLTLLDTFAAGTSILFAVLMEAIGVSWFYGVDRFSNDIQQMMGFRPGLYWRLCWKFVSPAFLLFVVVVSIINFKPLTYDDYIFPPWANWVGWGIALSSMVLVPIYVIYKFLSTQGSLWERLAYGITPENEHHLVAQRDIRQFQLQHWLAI
Method: (§1) The affinity (Ki) was determined in a competition binding assay by incubating ^19F-imaging agent-1, a cold analog of imaging agent-1, or NE with ^3H-desmethylimipramine in cell membrane overexpressing human NET. The uptake selectivity was assessed by measuring imaging agent-1 or ^3H-NE cell uptake with and without pretreatment of desipramine, a selective NET inhibitor, in SK—N—SH (human neuroblastoma) and PC-12 (rat pheochromocytoma) cells. In SK—NSH cells, the uptake kinetics (Km and Vmax) were evaluated by measuring NET mediated uptake of imaging agent-1 or NE at various concentrations. Imaging agent-1 cardiac image quality was evaluated by PET imaging (˜1.5 mCi, i.v.) in rabbits in the presence and absence of desipramine (1 mg/kg).

[3] = biological target: T1, NET; assay: Effect of heart failure medications on NET mediated imaging agent-1 uptake in SK-N-SH cells; assay type: cell-based; parameters: endogenous in cells; host or cells: SK-N-SH; conditions: 1 million cells, 60 minutes
[4] = Whole organ bio-distribution and dosimetry from PET in healthy subjects; assay type: in vivo, human
Method: Whole organ bio-distribution and dosimetry for ^18F-labeled imaging agent-1 were determined based on PET image data from twelve healthy subjects. Image quantification, kinetic modeling to determine residence times, and dosimetry analysis were performed.
Head to mid-thigh PET image data for twelve healthy subjects were obtained using ^18F labeled imaging agent-1 at approximately 17, 31, 45, 117, 190, and 225 minutes post injection. Additionally, leg images were also obtained at approximately 66 and 274 minutes post injection. Image data were attenuation corrected at the imaging site, and were quantified based on the Medical Internal Radiation Dosimetry (MIRD) 16 methodology to determine kinetic data in all organs showing significant uptake of activity. Dosimetry estimates were created via kinetic modeling of the quantified image data to determine residence times, and the standard MIRD methodology using a method similar. Kinetic data, residence times, and the dosimetry estimates were reported for each subject and as summary statistics.

[5] = biological target: T2, NET (Rattus norvegicus, UniProt Q63380); assay: Cell uptake selectivity with and without desipramine in PC-12 cells; assay type: cell-based
T2 construct: endogenous in cells; host or cells: PC-12
T2 sequence (Q63380 1-617): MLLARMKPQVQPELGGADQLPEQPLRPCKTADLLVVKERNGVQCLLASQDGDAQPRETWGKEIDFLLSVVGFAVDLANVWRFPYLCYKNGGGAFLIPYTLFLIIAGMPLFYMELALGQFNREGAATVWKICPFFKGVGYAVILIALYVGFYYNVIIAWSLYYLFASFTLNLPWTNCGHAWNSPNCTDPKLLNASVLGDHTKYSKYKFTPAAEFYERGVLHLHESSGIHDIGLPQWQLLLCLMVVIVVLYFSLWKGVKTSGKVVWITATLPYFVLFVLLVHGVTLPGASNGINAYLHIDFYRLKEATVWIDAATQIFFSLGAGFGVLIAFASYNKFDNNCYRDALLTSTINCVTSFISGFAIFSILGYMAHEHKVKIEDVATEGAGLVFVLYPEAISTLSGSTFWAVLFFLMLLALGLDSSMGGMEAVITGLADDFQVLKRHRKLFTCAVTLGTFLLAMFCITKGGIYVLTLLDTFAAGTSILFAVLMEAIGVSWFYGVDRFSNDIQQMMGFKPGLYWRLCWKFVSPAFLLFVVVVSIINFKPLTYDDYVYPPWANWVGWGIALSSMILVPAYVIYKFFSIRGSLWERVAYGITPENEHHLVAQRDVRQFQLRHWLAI
Method: as §1

[6] = biological target: T3, norepinephrine transporter (NET), uptake 1 (Oryctolagus cuniculus, UniProt G1TDF9); assay: Heart uptake in rabbits after uptake 1 blockade (desipramine) or 6-hydroxydopamine sympathetic denervation; assay type: in vivo; conditions: rabbits
T3 construct: from tissue; host or cells: rabbit heart, in vivo
T3 sequence (G1TDF9 1-617): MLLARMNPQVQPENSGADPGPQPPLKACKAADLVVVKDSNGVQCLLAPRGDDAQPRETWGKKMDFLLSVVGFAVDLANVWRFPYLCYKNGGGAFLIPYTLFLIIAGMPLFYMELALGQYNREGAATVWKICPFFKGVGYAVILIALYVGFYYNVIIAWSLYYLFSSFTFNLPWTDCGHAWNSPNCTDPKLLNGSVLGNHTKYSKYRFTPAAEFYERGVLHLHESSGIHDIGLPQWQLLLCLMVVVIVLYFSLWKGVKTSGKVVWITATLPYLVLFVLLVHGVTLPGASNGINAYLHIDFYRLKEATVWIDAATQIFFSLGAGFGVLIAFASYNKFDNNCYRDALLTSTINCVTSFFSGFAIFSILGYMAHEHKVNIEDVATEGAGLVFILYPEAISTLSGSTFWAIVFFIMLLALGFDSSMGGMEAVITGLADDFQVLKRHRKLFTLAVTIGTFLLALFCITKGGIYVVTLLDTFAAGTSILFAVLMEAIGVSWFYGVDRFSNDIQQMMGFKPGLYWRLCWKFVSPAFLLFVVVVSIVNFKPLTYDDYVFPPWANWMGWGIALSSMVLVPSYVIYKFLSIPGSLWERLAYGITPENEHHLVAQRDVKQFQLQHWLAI
Method: (§2) Imaging agent-1 was designed as a substrate for the norepinephrine transporter (NET) to image the cardiac sympathetic nervous system. […] These values were similar to that of MIBG (2.12±0.26 μM and 4.76±0.78 pmol/min/million cells). In animals, tissue biodistribution of imaging agent-1 was assessed by tissue sampling at 15- and 60-minute following administration. Heart uptake was 2.36±0.16 and 2.17±0.12% injected dose per g tissue (% ID/g) in rats and 0.25±0.03 and 0.28±0.03% ID/g in rabbits. In rabbits, desipramine (1 mg/kg) inhibited heart uptake of imaging agent-1 by 68% and ^123I-MIBG uptake by 55% at 1 hour post dose.
(§3) Desipramine, a selective uptake 1 inhibitor, was used to block cardiac uptake 1 in rats (10 mg/kg, ip), rabbits (1 mg/kg iv), and NHPs (0.5 mg/kg, iv). 6-hydroxydopamine, a neurotoxin, was injected to induce sympathetic denervation in rats (100 mg/kg ip for 7 days) and rabbits (25 mg/kg iv on day 1, 2, 7, and 8). Imaging agent-1 heart uptake in comparison with MIBG was assessed by tissue sampling at 60 minutes post imaging agent injection. Imaging was also performed with (2-tert-butyl-4-chloro-5-[4-(2-[^18F]fluoroethoxymethyl)-benzyloxy]-2H-pyridazin-3-1.

[7] = tested on: norepinephrine transporter (NET), uptake 1; assay: Cardiac imaging in NHPs pretreated with desipramine; assay type: in vivo, nonhuman primates (NHP); conditions: desipramine 0.5 mg/kg
Method: as §2, §3

[8] = Tissue biodistribution by tissue sampling in rats; assay type: in vivo
Method: as §2

[9] = biological target: T4, norepinephrine transporter (NET) (Homo sapiens, UniProt P23975); assay: Uptake and uptake kinetics in SH-SY5Y human neuroblastoma cells; assay type: cell-based
T4 construct: endogenous in cells; host or cells: SH-SY5Y
T4 sequence (P23975 whole entry): as the sequence (P23975 whole entry) above
Method: as §2

[10] = biological target: T1, NET; assay: Cell uptake selectivity with and without desipramine in SK-N-SH cells; assay type: cell-based; parameters: endogenous in cells; host or cells: SK-N-SH
Method: as §1

Vmax (NET mediated uptake) [2]: 6.0±1.3 pMol/million cells/min
Cell uptake [3]: 26±2%
Ratio of myocardial to liver radioactivity ([4]; at 4 hours): more than two
Injected dose remaining in the myocardium ([4]; decay-corrected, through 4 hours after injection): above 1.5 % of ID
Blood radioactivity clearance ([4]; human, in vivo): cleared quickly
Lung activity ([4]; human, in vivo): low throughout the study
Ratio of myocardial to liver radioactivity ([4]; initially): approximately one
Inhibition of cell uptake by blockade of NET (desipramine) [5]: 66±7%
Decrease in heart uptake after sympathetic denervation with 6-hydroxydopamine ([6]; 6-OHDA i.v.): 79%
Inhibition of heart uptake by desipramine (uptake 1 blockade) ([6]; desipramine 1 mg/kg, 1 hour post dose): 68%
Heart uptake ([8]; 15-minute following administration): 2.36±0.16 % ID/g
Heart uptake ([8]; 60-minute following administration): 2.17±0.12 % ID/g
Vmax (uptake kinetics) ([9]; SH-SY5Y cells): 5.18±1.23 pmol/min/million cells
Uptake in SH-SY5Y cells in presence of desipramine, a selective NET inhibitor ([9]; SH-SY5Y human neuroblastoma cell line): inhibited by desipramine
Inhibition of cell uptake by blockade of NET (desipramine) [10]: 91±1%
Structure (SMILES): N=C(N)NCc1ccc(OCCC[18F])c(Br)c1 [imaging agent-1, 1-{3-Bromo-4-[3-[^18F]fluoropropoxy]benzyl}guanidine]
Global reduction in heart uptake compared to control animals (image based quantification) ([1]; rabbits with systemic denervation (6-hydroxydopamine)): ~80%
Uptake in the treated regions after regional denervation ([1]; rabbits, phenol regional denervation): marked reduction
Peak uptake, liver ([4]; average): approximately 15.5 % of the injected activity
Peak uptake, urinary bladder ([4]; average): approximately 18.3 % of the injected activity
Tolerability ([4]; human, in vivo): well tolerated
Injected dose seen in the myocardium initially ([4]; initially): Approximately 1.6 % of the injected dose (ID)
Adverse events ([4]; twelve healthy subjects): No adverse events
Decrease of radioactivity in the heart by desipramine pretreatment (cardiac imaging) [7]: 68%
